Drawing on ChEMBL document CHEMBL5661943, “ASAP - In vitro antiviral effect” (2024), this text covers EC50 and EC90 for 5 compounds.

Experiment [1] concerns dengue virus type 2. Description: Functional assay to measure dose dependent changes in antiviral-drug inhibitory efficacy against Dengue virus type 2 New Guinea C in Vero E6 miRFP670 cells (cotreated with P-gp inhibitor, CP100356). Cells are treated with antiviral candidates that are serially diluted, following infection, cells are fixed. EC50 is reported via analysis of fluorescence intensity using high-content imager. The …. It counts as organism-based, Chlorocebus sabaeus, Vero C1008. As to conditions: Dengue virus.

Experiment [2] concerns Zika virus. Description: EC50 is reported via analysis of immunofluorescence staining. The assay has been performed by Icahn School of Medicine at Mount Sinai. It counts as functional, organism-based, Chlorocebus sabaeus, VeroE6/TMPRSS2. As to conditions: Zika virus; for EC90: P-gp concentration 2 uM, P-gp inhibitor Elacidar.
In experiment [3] the test system is Zika virus. Description: Functional CPE-based assay to measure dose dependent changes in antiviral-drug inhibitory efficacy against Zika virus MR766 in Vero E6 miRFP670 cells. Cells are treated with antiviral candidates that are serially diluted. EC50 is reported via analysis of MTS assay as a readout of CPE. The assay has been performed by KU Leuven. Type of experiment: organism-based, Chlorocebus sabaeus, Vero C1008.

The subject of experiment [4] is dengue virus type 2. Description: Functional immunofluorescence assay to measure dose dependent changes in antiviral-drug inhibitory efficacy against Dengue virus type 2 Thailand/16681/84 in Vero E6/TMPRSS2 cells (cotreated with P-gp inhibitor, Elacridar). Cells are treated with antiviral candidates that are serially diluted, following infection, cells are fixed. EC50 is reported via analysis of immunofluorescence staining. The assay has been performed by Icahn School of Medicine at Mount Sinai. It counts as organism-based, Chlorocebus sabaeus, VeroE6/TMPRSS2. The conditions noted are these: Dengue virus.

Take `N#C[C@H](Nc1ccc2c(c1)CNC2)c1cc(Cl)cc2[nH]ncc12`: the EC50 in the experiment on dengue virus type 2 [1] (Vero C1008) is above 50 µM; in the experiment with Zika virus [2] (VeroE6/TMPRSS2), 7.2 µM; with Zika virus [3] (Zika virus, Vero C1008) it was 42.5 µM; with Zika virus [3] (vero c1008), above 50 µM. Besides, the EC90 with dengue virus type 2 [1] (Vero C1008, Maximum measured 117.716 %, Minimum measured 103.927 %, P-gp concentration 500 nM, P-gp inhibitor CP100356) was above 50 µM; in the experiment with dengue virus type 2 [1] (Vero C1008, Maximum measured 161.231 %, Minimum measured 110.618 %, P-gp concentration 500 nM, P-gp inhibitor CP100356), above 50 µM; in the experiment on Zika virus [2] (VeroE6/TMPRSS2, Baseline response 0 %, Hill slope -1.174, Maximum measured 85.278 %, Maximum response 50 %, Minimum measured 14.695 %, R squared 0.497), above 16.7 µM; with Zika virus [3] (Zika virus, Vero C1008, Baseline response 0 %, Hill slope 4.778, Maximum measured 68.413 %, Maximum response 100 %, Minimum measured -0.525 %, R squared 0.993) it was above 50 µM; in the experiment with Zika virus [3] (Zika virus, Vero C1008, Maximum measured -1.389 %, Minimum measured -3.372 %), above 50 µM.

Regarding `O=C(O)COc1cccc(NC(=O)c2cc(Cl)cc(NC(=O)OCc3ccccc3)c2)c1`, the 50% effective concentration (EC50) was above 50 µM with dengue virus type 2 [1] (Vero C1008); above 50 µM in the experiment with Zika virus [2] (VeroE6/TMPRSS2); above 50 µM in the experiment with Zika virus [3] (Zika virus, Vero C1008); above 50 µM in the experiment on dengue virus type 2 [4] (VeroE6/TMPRSS2). For the same compound, the EC90 with dengue virus type 2 [1] (Vero C1008, Maximum measured 107.555 %, Minimum measured 104.836 %, P-gp concentration 500 nM, P-gp inhibitor CP100356) was above 50 µM; in the experiment on Zika virus [2] (VeroE6/TMPRSS2, Baseline response 0 %, Hill slope 0.101, Maximum measured 106.686 %, Maximum response 100 %, Minimum measured 54.693 %, R squared 0.072), above 50 µM; in the experiment on Zika virus [3] (Zika virus, Vero C1008, Maximum measured -[…], Minimum measured -2.209 %) it was above 50 µM; with dengue virus type 2 [4] (VeroE6/TMPRSS2, Maximum measured 97.013 %, Minimum measured 38.667 %, P-gp concentration 2 uM, P-gp inhibitor Elacidar), above 50 µM.

For the compound `CCOc1cccc(-c2ccc(S(=O)(=O)Nc3ccc(Cl)cc3C(=O)O)cc2C)c1`, the EC50 is 22.3 µM in the experiment with dengue virus type 2 [1] (Vero C1008); 2.44 µM in the experiment with Zika virus [2] (VeroE6/TMPRSS2); above 50 µM with Zika virus [3] (Zika virus, Vero C1008); 0.175 µM in the experiment with dengue virus type 2 [4] (VeroE6/TMPRSS2). For the same compound, the EC90 with dengue virus type 2 [1] (Vero C1008, Baseline response 0 %, Hill slope -31.955, Maximum measured 106.035 %, Maximum response 100 %, Minimum measured 0.035 %, P-gp concentration 500 nM, R squared 0.9, P-gp inhibitor CP100356) was 23.9 µM; in the experiment on Zika virus [2] (VeroE6/TMPRSS2, Baseline response 0 %, Hill slope -0.481, Maximum measured 136.466 %, Maximum response 100 %, Minimum measured 2.895 %, R squared 0.53) it was above 50 µM; in the experiment with Zika virus [3] (Zika virus, Vero C1008, Baseline response 0 %, Hill slope -0.317, Maximum measured 5.247 %, Maximum response 100 %, Minimum measured -4.425 %, R squared 0.236), above 50 µM; with dengue virus type 2 [4] (VeroE6/TMPRSS2), above 16.7 µM.

With `COC(=O)c1cc(NC(=O)c2cc(Cl)cc(NC(=O)OCc3ccccc3)c2)cc(-c2nnn[nH]2)c1`, the EC50 in the experiment with dengue virus type 2 [1] (Vero C1008) was 43.1 µM; in the experiment on Zika virus [2] (VeroE6/TMPRSS2), above 16.7 µM; in the experiment with Zika virus [3] (Zika virus, Vero C1008), above 50 µM; in the experiment with dengue virus type 2 [4] (VeroE6/TMPRSS2) it was 39.8 µM. Further, the EC90 with dengue virus type 2 [1] (Vero C1008) is 49.4 µM; in the experiment with Zika virus [2] (VeroE6/TMPRSS2, Maximum measured 163.156 %, Minimum measured 112.225 %) it was above 16.7 µM; in the experiment on Zika virus [3] (Zika virus, Vero C1008, Maximum measured 4.051 %, Minimum measured -3.87 %), above 50 µM; in the experiment on dengue virus type 2 [4] (VeroE6/TMPRSS2, Baseline response 0 %, Hill slope -17.631, Maximum measured 314.134 %, Maximum response 266.23 %, Minimum measured 4.599 %, P-gp concentration 2 uM, R squared 0.779, P-gp inhibitor Elacidar), 45 µM.

As to `NCc1cccc(CCc2cc(Cl)cc(NC(=O)OCc3ccccc3)c2)c1`, the EC50 in the experiment on dengue virus type 2 [1] (Vero C1008) was 7.13 µM; in the experiment with Zika virus [2] (VeroE6/TMPRSS2) it was above 50 µM; in the experiment on Zika virus [3] (Zika virus, Vero C1008), above 50 µM; with dengue virus type 2 [4] (VeroE6/TMPRSS2) it was above 1.85 µM. For the same compound, the EC90 was 10 µM in the experiment with dengue virus type 2 [1] (Vero C1008, Baseline response 0 %, EC90 CI (lower) 3.921 uM, EC90 CI (upper) 6.549 uM, Hill slope -6.432, Maximum measured 108.307 %, Maximum response 100 %, Minimum measured 4.257 %, P-gp concentration 500 nM, R squared 0.964, P-gp inhibitor CP100356); above 50 µM in the experiment on Zika virus [2] (VeroE6/TMPRSS2, Maximum measured 110.897 %, Minimum measured 60.854 %); above 50 µM with Zika virus [3] (Zika virus, Vero C1008, Maximum measured 1.168 %, Minimum measured -5.971 %); above 1.85 µM in the experiment on dengue virus type 2 [4] (VeroE6/TMPRSS2, Maximum measured 240.936 %, Minimum measured 110.203 %, P-gp concentration 2 uM, P-gp inhibitor Elacidar).

As usually defined, the EC50 is the concentration at which the effect is half-maximal. As usually defined, the EC90 is the concentration at which the effect reaches the 90% level.
